Experiment [1] concerns the target T1, MAGL (Mus musculus, UniProt O35678).
T1 construct: Proteomes (mouse brain membrane fraction or cell lysates); from tissue; host or cells: mouse brain membrane fraction or cell lysates
T1 sequence (O35678 1-303): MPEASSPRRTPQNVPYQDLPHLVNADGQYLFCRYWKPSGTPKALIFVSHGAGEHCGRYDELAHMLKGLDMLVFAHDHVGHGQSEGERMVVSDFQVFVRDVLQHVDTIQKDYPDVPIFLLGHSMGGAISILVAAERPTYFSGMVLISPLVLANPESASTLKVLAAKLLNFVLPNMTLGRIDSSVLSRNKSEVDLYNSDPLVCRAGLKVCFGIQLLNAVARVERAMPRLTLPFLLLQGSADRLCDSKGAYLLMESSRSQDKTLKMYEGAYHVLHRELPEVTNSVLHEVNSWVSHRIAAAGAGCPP
As to the kind of experiment: In vitro competitive activity-based protein profiling (mouse), MAGL. The experiment is classed as biochemical. Particulars: for inhibition at 1 µM: 1 μM inhibitor, mouse brain membrane fraction or cell lysates, read-out: MAGL % inh. 1 μM (mouse). The protocol:
(§1) In Vitro Competitive Activity-Based Protein Profiling (Mouse).
(§2) Proteomes (mouse brain membrane fraction or cell lysates) (50 μL, 1.0 mg/mL total protein concentration) were preincubated with varying concentrations of inhibitors at 37° C. After 30 min, FP-Rh (1.0 μL, 50 μM in DMSO) was added and the mixture was incubated for another 30 min at 37° C. Reactions were quenched with SDS loading buffer (50 μL-4×) and run on SDS-PAGE. Following gel imaging, serine hydrolase activity was determined by measuring fluorescent intensity of gel bands corresponding to MAGL and ABHD6 using ImageJ 1.49 k software. Data from this assay is shown in Table 1 (% inhibition at 1 μM).

Experiment [2] deals with T2, ABHD6 (Mus musculus, UniProt Q8R2Y0).
T2 construct: Proteomes (mouse brain membrane fraction or cell lysates); from tissue; host or cells: mouse brain membrane fraction or cell lysates
T2 sequence (Q8R2Y0 1-336): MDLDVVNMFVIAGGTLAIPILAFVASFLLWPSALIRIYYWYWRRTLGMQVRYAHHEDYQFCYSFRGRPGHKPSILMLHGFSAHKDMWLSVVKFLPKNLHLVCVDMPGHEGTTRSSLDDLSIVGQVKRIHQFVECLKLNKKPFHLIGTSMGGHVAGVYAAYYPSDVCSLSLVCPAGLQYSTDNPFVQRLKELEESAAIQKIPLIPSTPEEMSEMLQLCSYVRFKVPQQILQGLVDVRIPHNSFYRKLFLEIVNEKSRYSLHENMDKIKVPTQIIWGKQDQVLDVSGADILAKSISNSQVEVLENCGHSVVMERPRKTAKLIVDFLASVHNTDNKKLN
As to the kind of experiment: In vitro competitive activity-based protein profiling (mouse), ABHD6. Type of experiment: biochemical. Particulars: 1 μM inhibitor, mouse brain membrane fraction or cell lysates; read-out: ABHD6 % inh. 1 μM (mouse). The method, then:
as §1, §2

For experiment [3], the target named is T1, MAGL. In words: Mouse brain proteomes from inhibitor treated mice, MAGL inhibition. The settings on record: 5 mg/kg oral gavage, C57Bl/6J mouse brain, 4 h following administration; read-out: MAGL % inh. 5 mg/kg (mouse). Type of experiment: in vivo. The protocol:
Preparation of Mouse Brain Proteomes from Inhibitor Treated Mice.
Inhibitors were administered to wild-type C57Bl/6J by oral gavage in a vehicle of polyethylene glycol. Each animal was sacrificed 4 h following administration and brain proteomes were prepared and analyzed according to previously established methods (See Niphakis, M. J., et al. (2011) ACS Chem. Neurosci. and Long, J. Z., et al. Nat. Chem. Biol. 5:37-44).

Experiment [4] deals with T3, MAGL (Homo sapiens, UniProt Q99685).
T3 construct: Proteomes (human prefrontal cortex or cell membrane fractions); from tissue
T3 sequence (Q99685 1-303): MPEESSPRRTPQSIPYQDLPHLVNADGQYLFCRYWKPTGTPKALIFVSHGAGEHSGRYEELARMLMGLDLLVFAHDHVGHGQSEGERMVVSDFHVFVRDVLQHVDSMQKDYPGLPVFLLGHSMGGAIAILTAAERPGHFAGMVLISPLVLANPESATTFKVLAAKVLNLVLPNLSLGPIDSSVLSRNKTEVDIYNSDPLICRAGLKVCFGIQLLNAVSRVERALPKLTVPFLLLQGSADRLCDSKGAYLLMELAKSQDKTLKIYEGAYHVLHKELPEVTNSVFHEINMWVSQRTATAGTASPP
In words: In vitro competitive activity-based protein profiling (human), MAGL. The settings on record: for inhibition at 1 µM: 1 μM inhibitor, human proteome, 30 min preincubation at 37° C, read-out: MAGL % inh. 1 μM (human); for IC50: human PC3. The experiment is classed as biochemical. The method, then:
(§3) In Vitro Competitive Activity-Based Protein Profiling (Human).
(§4) Proteomes (human prefrontal cortex or cell membrane fractions) (50 μL, 1.0-2.0 mg/mL total protein concentration) were preincubated with varying concentrations of inhibitors at 37° C. After 30 min, FP-Rh or JW912 (1.0 μL, 50 μM in DMSO) was added and the mixture was incubated for another 30 min at room temperature. Reactions were quenched with SDS loading buffer (15 μL-4×) and run on SDS-PAGE. Following gel imaging, serine hydrolase activity was determined by measuring fluorescent intensity of gel bands corresponding to MAGL and ABHD6 using ImageJ 1.49 k software.

The target in experiment [5] is T4, ABHD6 (Homo sapiens, UniProt Q9BV23).
T4 construct: Proteomes (human prefrontal cortex or cell membrane fractions); endogenous in cells; human prefrontal cortex
T4 sequence (Q9BV23 1-337): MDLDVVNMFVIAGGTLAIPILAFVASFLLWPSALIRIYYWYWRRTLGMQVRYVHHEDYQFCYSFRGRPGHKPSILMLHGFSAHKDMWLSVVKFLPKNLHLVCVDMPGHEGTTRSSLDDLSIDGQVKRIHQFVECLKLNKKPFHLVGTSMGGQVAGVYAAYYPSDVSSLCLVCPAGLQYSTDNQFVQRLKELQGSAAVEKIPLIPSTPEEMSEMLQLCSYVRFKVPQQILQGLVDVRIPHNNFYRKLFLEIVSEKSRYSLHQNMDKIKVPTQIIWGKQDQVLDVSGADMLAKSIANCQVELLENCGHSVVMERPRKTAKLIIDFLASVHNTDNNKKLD
As to the kind of experiment: In vitro competitive activity-based protein profiling (human), ABHD6. Type of experiment: biochemical. The settings on record: human PC3. The protocol: as §3, §4

As a reminder, the IC50 is the concentration that gives 50% inhibition. A higher IC50 goes with lower potency. `O=C(O)CN1CCN(c2cc(C(F)(F)F)ccc2CN2CCN(C(=O)OC(C(F)(F)F)C(F)(F)F)CC2)CC1` [Example 42]: the inhibition at 1 µM in experiment [1] is at least 75%; in experiment [2], 0 to 25%; in experiment [4], at least 75%. Further, the IC50 in experiment [1] (mouse proteome) is at most 0.1 µM. Moreover, the inhibition at 5 mg/kg in experiment [3] fell in the range of 25 to 50%.

Turning to `CCC1(C(=O)O)CCN(c2cc(CN3CCN(C(=O)OC(C(F)(F)F)C(F)(F)F)CC3)cc(C(F)(F)F)c2)CC1` [Example 53, 4-ethyl-1-(3-((4-(((1,1,1,3,3,3-hexafluoropropan-2-yl)oxy)carbonyl)piperazin-1-yl)methyl)-5-(trifluoromethyl)phenyl)piperidine-4-carboxylic acid], the inhibition at 1 µM in experiment [1], in experiment [2] and in experiment [4] was at least 75% each time. For the same compound, the results for the concentration for half-maximal inhibition (IC50) in experiment [5] and in experiment [4] were 0.1 to 1 µM and at most 0.1 µM, respectively.

Take `CC1(C(=O)O)CCCN(c2cc(CN3CCN(C(=O)OC(C(F)(F)F)C(F)(F)F)CC3)cc(C(F)(F)F)c2)C1` (stereo not drawn) [Example 56, 1-(3-((4-(((1,1,1,3,3,3-hexafluoropropan-2-yl)oxy)carbonyl)piperazin-1-yl)methyl)-5-(trifluoromethyl)phenyl)-3-methylpiperidine-3-carboxylic acid]: the results for the inhibition at 1 µM in experiment [1], in experiment [2] and in experiment [4] were at least 75%, 0 to 25% and at least 75%, respectively. Also, the half-inhibitory concentration (IC50) in experiment [5] and in experiment [4] was at most 0.1 µM in each case.

`O=C(O)CNCC1CCN(c2cc(C(F)(F)F)ccc2CN2CCN(C(=O)OC(C(F)(F)F)C(F)(F)F)CC2)CC1` [Example 61, ((1-(2-((4-(((1,1,1,3,3,3-hexafluoropropan-2-yl)oxy)carbonyl)piperazin-1-yl)methyl)-5-(trifluoromethyl)phenyl)piperidin-4-yl)methyl)glycine]: the inhibition at 1 µM is at least 75% in experiment [1], 0 to 25% in experiment [2] and at least 75% in experiment [4]. Moreover, the 50% inhibitory concentration (IC50) in experiment [5] is 1 to 10 µM; in experiment [4], at most 0.1 µM.

`O=C(O)[C@@H]1CCCN(c2cc(CN3CCN(C(=O)OC(C(F)(F)F)C(F)(F)F)CC3)cc(C(F)(F)F)c2)C1` [Example 66, (R)-1-(3-((4-(((1,1,1,3,3,3-hexafluoropropan-2-yl)oxy)carbonyl)piperazin-1-yl)methyl)-5-(trifluoromethyl)phenyl)piperidine-3-carboxylic acid]: the inhibition at 1 µM in experiment [1], in experiment [2] and in experiment [4] was at least 75% in each case. Moreover, the half-inhibitory concentration (IC50) in experiment [5] and in experiment [4] was at most 0.1 µM each time.

As for `O=C(O)C1COCCN1c1cc(CN2CCN(C(=O)OC(C(F)(F)F)C(F)(F)F)CC2)cc(C(F)(F)F)c1` (stereo not drawn) [Example 68, 4-(3-((4-(((1,1,1,3,3,3-hexafluoropropan-2-yl)oxy)carbonyl)piperazin-1-yl)methyl)-5-(trifluoromethyl)phenyl)morpholine-3-carboxylic acid], the inhibition at 1 µM in experiment [1], in experiment [2] and in experiment [4] was at least 75% throughout. Besides, the IC50 was 0.1 to 1 µM in experiment [5] and at most 0.1 µM in experiment [4].

With `N#Cc1ccc(CN2CCN(C(=O)OC(C(F)(F)F)C(F)(F)F)CC2)c(N2CCC(C(=O)O)CC2)c1` [Example 69, 1-(5-cyano-2-((4-(((1,1,1,3,3,3-hexafluoropropan-2-yl)oxy)carbonyl)piperazin-1-yl)methyl)phenyl)piperidine-4-carboxylic acid], the inhibition at 1 µM in experiment [1] is at least 75%; in experiment [2], 0 to 25%; in experiment [4] it was at least 75%. Also, the IC50 was 0.1 to 1 µM in experiment [5] and at most 0.1 µM in experiment [4].

Regarding `O=C(O)C1COCCN1c1cc(C(F)(F)F)ccc1CN1CCN(C(=O)OC(C(F)(F)F)C(F)(F)F)CC1` (stereo not drawn) [Example 71, 4-(2-((4-(((1,1,1,3,3,3-hexafluoropropan-2-yl)oxy)carbonyl)piperazin-1-yl)methyl)-5-(trifluoromethyl)phenyl)morpholine-3-carboxylic acid], the inhibition at 1 µM is at least 75% in experiment [1], 0 to 25% in experiment [2] and at least 75% in experiment [4]. Further, the half-maximal inhibitory concentration (IC50) in experiment [5] was in the range of 1 to 10 µM; in experiment [4] it was 0.1 to 1 µM.

For `O=C(O)C1CCN(c2cc(C(F)F)ccc2CN2CCN(C(=O)OC(C(F)(F)F)C(F)(F)F)CC2)CC1` [Example 72, 1-(5-(difluoromethyl)-2-((4-(((1,1,1,3,3,3-hexafluoropropan-2-yl)oxy)carbonyl)piperazin-1-yl)methyl)phenyl)piperidine-4-carboxylic acid], the inhibition at 1 µM in experiment [1], in experiment [2] and in experiment [4] was at least 75% throughout. Further, the IC50 in experiment [5] was 1 to 10 µM; in experiment [4], at most 0.1 µM.

As for `O=C(O)C1CCN(c2cc(F)ccc2CN2CCN(C(=O)OC(C(F)(F)F)C(F)(F)F)CC2)CC1` [Example 73, 1-(5-fluoro-2-((4-(((1,1,1,3,3,3-hexafluoropropan-2-yl)oxy)carbonyl)piperazin-1-yl)methyl)phenyl)piperidine-4-carboxylic acid], the values for the inhibition at 1 µM in experiment [1], in experiment [2] and in experiment [4] were at least 75%, 50 to 75% and at least 75%, respectively. The figures for the concentration for half-maximal inhibition (IC50) in experiment [5] and in experiment [4] were 1 to 10 µM and at most 0.1 µM, respectively.

Take `O=C(O)[C@H]1CCCN(c2cc(C(F)(F)F)ccc2CN2CCN(C(=O)OC(C(F)(F)F)C(F)(F)F)CC2)C1` [Example 80, (S)-1-(2-((4-(((1,1,1,3,3,3-hexafluoropropan-2-yl)oxy)carbonyl)piperazin-1-yl)methyl)-5-(trifluoromethyl)phenyl)piperidine-3-carboxylic acid]: the inhibition at 1 µM in experiment [1] is at least 75%; in experiment [2], 25 to 50%; in experiment [4] it was at least 75%. Moreover, the IC50 in experiment [5] is 0.1 to 1 µM; in experiment [4] it was at most 0.1 µM.

For `O=C(O)[C@H]1CCCN(c2cc(CN3CCN(C(=O)OC(C(F)(F)F)C(F)(F)F)CC3)cc(C(F)(F)F)c2)C1` [Example 81, (S)-1-(3-((4-(((1,1,1,3,3,3-hexafluoropropan-2-yl)oxy)carbonyl)piperazin-1-yl)methyl)-5-(trifluoromethyl)phenyl)piperidine-3-carboxylic acid], the inhibition at 1 µM in experiment [1], in experiment [2] and in experiment [4] was at least 75% throughout. The IC50 in experiment [5] was 0.1 to 1 µM; in experiment [4] it was at most 0.1 µM.

Source of the values: patent US10899737B2, “Piperazine carbamates and methods of making and using same” (Lundbeck La Jolla Research Center, Inc., priority 2016, dated 2021).
